The source of these data is US7598241B2, “Carboxamide derivatives and their use as factor Xa inhibitors” (Merck Patent GmbH, priority 2003, dated 2009).

The target of one assay is factor Xa (Homo sapiens, UniProt P00742). Nature of the assay: Factor Xa inhibition (FXa-IC50). Type of assay: biochemical. An excerpt:
The inhibition of factor Xa by the compounds according to the invention and the measurement of the anticoagulant and antithrombotic activity can be determined by conventional in-vitro or in-vivo methods. A suitable method is described, for example, by J. Hauptmann et al. in Thrombosis and Haemostasis 1990, 63, 220-223.
The inhibition of factor Xa can be measured, for example, by the method of T. Hara et al. in Thromb. Haemostas. 1994, 71, 314-319.

The target of the next assay is TF/FVIIa (Homo sapiens, UniProt P08709). In words: TF/FVIIa inhibition (TF/FVIIa-IC50). In kind it is biochemical. From the text: Coagulation factor VIIa initiates the extrinsic part of the coagulation cascade after binding to tissue factor and contributes to the activation of factor X to give factor Xa. Inhibition of factor VIIa thus prevents the formation of factor Xa and thus subsequent thrombin formation. • The inhibition of factor VIIa by the compounds according to the invention and the measurement of the anticoagulant and antithrombotic activity can be determined by conventional in-vitro or in-vivo methods. A conventional method for the measurement of the inhibition of factor VIIa is described, for example, by H. F. Ronning et al. in Thrombosis Research 1996, 84, 73-81.
Chain of TF/FVIIa (P08709 213-466 limits assumed): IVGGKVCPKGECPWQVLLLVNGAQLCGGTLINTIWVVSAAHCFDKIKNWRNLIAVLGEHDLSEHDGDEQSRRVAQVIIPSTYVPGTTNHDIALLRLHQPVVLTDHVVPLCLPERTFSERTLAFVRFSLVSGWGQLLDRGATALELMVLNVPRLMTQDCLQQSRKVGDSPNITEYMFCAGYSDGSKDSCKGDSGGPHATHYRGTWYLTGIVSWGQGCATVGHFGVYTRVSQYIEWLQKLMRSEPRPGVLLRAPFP
Chain of TF/FVIIa (P08709 61-212 partner limits assumed): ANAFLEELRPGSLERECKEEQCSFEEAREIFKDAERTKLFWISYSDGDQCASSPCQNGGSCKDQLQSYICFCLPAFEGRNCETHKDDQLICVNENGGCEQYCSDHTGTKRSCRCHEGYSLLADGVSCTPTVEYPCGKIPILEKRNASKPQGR
Chain of TF/FVIIa (P13726 33-295 partner): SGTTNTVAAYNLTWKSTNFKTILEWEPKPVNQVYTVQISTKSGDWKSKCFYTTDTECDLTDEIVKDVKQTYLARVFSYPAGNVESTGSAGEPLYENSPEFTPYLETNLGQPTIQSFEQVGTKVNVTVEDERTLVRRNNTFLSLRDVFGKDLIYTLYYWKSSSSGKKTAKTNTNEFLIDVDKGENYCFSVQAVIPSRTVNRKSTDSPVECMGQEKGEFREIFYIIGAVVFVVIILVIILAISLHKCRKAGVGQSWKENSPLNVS

Chain of factor Xa (P00742 235-488 limits assumed): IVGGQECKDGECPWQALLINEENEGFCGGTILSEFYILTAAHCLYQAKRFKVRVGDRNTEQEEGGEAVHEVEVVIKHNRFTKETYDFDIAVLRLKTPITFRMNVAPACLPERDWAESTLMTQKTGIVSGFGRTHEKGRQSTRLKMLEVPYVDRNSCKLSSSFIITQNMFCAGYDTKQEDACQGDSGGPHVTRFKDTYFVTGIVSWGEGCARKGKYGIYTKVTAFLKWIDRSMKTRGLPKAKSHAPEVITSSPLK
Chain of factor Xa (P00742 41-179 partner limits assumed): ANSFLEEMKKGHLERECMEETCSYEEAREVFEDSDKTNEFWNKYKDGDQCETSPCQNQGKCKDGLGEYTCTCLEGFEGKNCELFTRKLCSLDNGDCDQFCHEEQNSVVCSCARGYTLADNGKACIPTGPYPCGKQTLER

By IC50 is commonly meant the concentration that gives 50% inhibition. A low value points to inhibition by little substance. `CS(=O)(=O)CCC(NC(=O)Nc1ccc(Cl)cc1)C(=O)Nc1ccc(-n2ccncc2=O)cc1` (stereo not shown) [Compound 1B, 2-[3-(4-chlorophenyl)ureido]-N-[4-(2-oxo-2H-pyrazin-1-yl)phenyl]-4-methanesulfonylbutyramide]: the IC50 against factor Xa stood at 42 nM; at TF/FVIIa, 43 nM. Taken in the same sequence, the figures for `CS(=O)(=O)CCC(NC(=O)Nc1ccc(Cl)cc1)C(=O)Nc1ccc(-n2ccccc2=O)cc1` (stereo not shown) [Compound 1A, 2-[3-(4-chlorophenyl)ureido]-N-[4-(2-oxo-2H-pyridin-1-yl)phenyl]-4-methanesulfonylbutyramide] were 28 nM and 28 nM.

As to `COP(=O)(C[C@@H](NC(=O)Nc1ccc(Cl)cc1)C(=O)Nc1ccc(N2CCOCC2=O)cc1)OC` [Compound 1D, (S)-2-[3-(4-chlorophenyl)ureido]-N-[4-(3-oxomorpholin-4-yl)phenyl]-3-(dimethoxyphosphoryl)propionamide], half-maximal inhibition against factor Xa (IC50) was put at 85 nM. For `CS(=O)(=O)C[C@H](NC(=O)Nc1ccc(Cl)cc1)C(=O)Nc1ccc(-n2ccccc2=O)cc1` [Compound 2A, (R)-2-[3-(4-chlorophenyl)ureido]-N-[4-(2-oxo-2H-pyridin-1-yl)phenyl]-3-methanesulfonylpropionamide], the half-maximal inhibitory concentration (IC50) stood at 6.4 nM against factor Xa and 12 nM against TF/FVIIa.
